In PubChem BioAssay AID248 (DTP/NCI, 2004):
Several values for one entry are separate records, joined by “and”; a condition that tells them apart may be missing. Equal values may be shown once. Inconclusive results and toxic doses are left out. No stated cut-off is given here; in the data, active means T/C of 150% or more; inactive means T/C below 125%.

Tested on: L1210 leukemia ip in BDF1 mice, survival T/C
Assay: NCI In Vivo Anticancer Drug Screen. Data for tumor model L1210 Leukemia (intraperitoneal) in B6D2F1 (BDF1) mice
Conditions: endpoint: mean survival time, higher = longer survival
Procedure, shortened: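 Ratio derived from survival: compound-dosed mice over vehicle-dosed mice, all bearing a transplantable tumor.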

[1] = dose: 100.0 mg/kg/injection, schedule: Q04DX003 (ip), vehicle: saline with Tween-80
[2] = dose: 200.0 mg/kg/injection, schedule: Q04DX003 (ip), vehicle: saline with Tween-80
[3] = dose: 400.0 mg/kg/injection, schedule: Q04DX003 (ip), vehicle: saline with Tween-80
[4] = dose: 100.0 mg/kg/injection, schedule: Q04DX003 (ip), vehicle: Klucel (hydroxypropylcellulose) (HPC)
[5] = dose: 200.0 mg/kg/injection, schedule: Q04DX003 (ip), vehicle: Klucel (hydroxypropylcellulose) (HPC)
[6] = dose: 400.0 mg/kg/injection, schedule: Q04DX003 (ip), vehicle: Klucel (hydroxypropylcellulose) (HPC)
[7] = dose: 75.0 mg/kg/injection, schedule: Q01DX001 (ip), vehicle: saline
[8] = dose: 150.0 mg/kg/injection, schedule: Q01DX001 (ip), vehicle: saline
[9] = dose: 100.0 mg/kg/injection, schedule: Q04DX002 (ip), vehicle: saline with Tween-80
[10] = dose: 200.0 mg/kg/injection, schedule: Q04DX002 (ip), vehicle: saline with Tween-80
[11] = dose: 400.0 mg/kg/injection, schedule: Q04DX002 (ip), vehicle: saline with Tween-80
[12] = dose: 100.0 mg/kg/injection, schedule: Q01DX009 (ip), vehicle: saline with Tween-80
[13] = dose: 200.0 mg/kg/injection, schedule: Q01DX009 (ip), vehicle: saline with Tween-80
[14] = dose: 400.0 mg/kg/injection, schedule: Q01DX009 (ip), vehicle: saline with Tween-80
[15] = dose: 200.0 mg/kg/injection, schedule: Q01DX009 (ip), vehicle: saline
[16] = dose: 400.0 mg/kg/injection, schedule: Q01DX009 (ip), vehicle: saline
[17] = dose: 100.0 mg/kg/injection, schedule: Q01DX009 (ip), vehicle: Klucel (hydroxypropylcellulose) (HPC)
[18] = dose: 200.0 mg/kg/injection, schedule: Q01DX009 (ip), vehicle: Klucel (hydroxypropylcellulose) (HPC)
[19] = dose: 400.0 mg/kg/injection, schedule: Q01DX009 (ip), vehicle: Klucel (hydroxypropylcellulose) (HPC)
[20] = dose: 25.0 mg/kg/injection, schedule: Q01DX009 (ip), vehicle: saline
[21] = dose: 50.0 mg/kg/injection, schedule: Q01DX009 (ip), vehicle: saline

Measured: T/C

CC(=O)NC(O)C(Cl)(Cl)Cl (stereo not drawn)
inactive: dose: 100.0 mg/kg/injection, schedule: Q01DX009 (ip), vehicle: saline sonified 102 % of control | [1] 100 % of control | dose: 200.0 mg/kg/injection, schedule: Q01DX009 (ip), vehicle: saline sonified 95 % of control | [2] 96 % of control | dose: 400.0 mg/kg/injection, schedule: Q01DX009 (ip), vehicle: saline sonified 93 % of control | [3] 110 % of control

CC(C(O)c1ccc(Br)cc1)C(O)(C(F)(F)F)C(F)(F)F (stereo not drawn)
inactive: dose: 100.0 mg/kg/injection, schedule: Q01DX009 (ip), vehicle: other 111 % of control | dose: 200.0 mg/kg/injection, schedule: Q01DX009 (ip), vehicle: other 97 % of control | dose: 400.0 mg/kg/injection, schedule: Q01DX009 (ip), vehicle: other 103 % of control

N#CCc1ccc2c(c1)[nH]c1ccccc12
inactive: [4] 100 % of control | [5] 100 % of control | [6] 105 % of control

COc1ccc(-n2cc3c(=O)nccc-3c3ccccc32)cc1OC
inactive: [7] 95 % of control | [8] 89 % of control

CC(=O)NC1C(C)OC2COC(C)(C)OC2C1C (stereo not drawn)
inactive: dose: 100.0 mg/kg/injection, schedule: Q01DX001 (ip), vehicle: saline with Tween-80 100 % of control | dose: 200.0 mg/kg/injection, schedule: Q01DX001 (ip), vehicle: saline with Tween-80 100 % of control | dose: 400.0 mg/kg/injection, schedule: Q01DX001 (ip), vehicle: saline with Tween-80 104 % of control

COC1OCC(Cl)C(O)C1OS(C)(=O)=O (stereo not drawn)
inactive: [9] 96 % of control | [10] 100 % of control | [11] 104 % of control

CCOC(=O)C(OCc1ccccc1)(C(=O)N1CCCCCC1=O)C(C)C (stereo not drawn)
inactive: [12] 90 % of control | [13] 90 % of control | [14] 100 % of control

Cc1ccc(O)c(C)n1
inactive: dose: 66.0 mg/kg/injection, schedule: Q01DX009 (ip), vehicle: saline 98 % of control | dose: 150.0 mg/kg/injection, schedule: Q01DX009 (ip), vehicle: saline 97 % of control | [15] 93 % of control | [16] 102 % of control

Cc1ccc(NC(=S)N2CCCCC2C)cc1C (stereo not drawn)
inactive: [17] 98 % of control | [18] 101 % of control | [19] 91 % of control

CC1COCC(C)N1CC(=O)NCCCN1CCN(CCCNC(=O)CN2C(C)COCC2C)CC1 (stereo not drawn)
inactive: dose: 44.0 mg/kg/injection, schedule: Q01DX001 (ip), vehicle: saline 98 % of control and 103 % of control | dose: 66.0 mg/kg/injection, schedule: Q01DX001 (ip), vehicle: saline 104 % of control and 108 % of control | dose: 100.0 mg/kg/injection, schedule: Q01DX001 (ip), vehicle: saline 104 % of control and 105 % of control | [8] 110 % of control and 116 % of control | dose: 200.0 mg/kg/injection, schedule: Q01DX001 (ip), vehicle: saline 113 % of control

O=C(O)Cn1c(C(F)(F)F)nc2nc(Cl)c(Cl)nc21
inactive: [12] 89 % of control | [1] 94 % of control | [13] 100 % of control | [2] 94 % of control | [14] 92 % of control | [3] 97 % of control

O=c1[nH]cnc2nc(SCc3cccc([N+](=O)[O-])c3)[nH]c12
inactive: dose: 150.0 mg/kg/injection, schedule: Q01DX001 (ip), vehicle: other 89 % of control | dose: 300.0 mg/kg/injection, schedule: Q01DX001 (ip), vehicle: other 87 % of control

CC1C=C(Br)C(=O)c2ccccc2N1S(C)(=O)=O (stereo not drawn)
inactive: dose: 6.0 mg/kg/injection, schedule: Q04DX003 (ip), vehicle: Klucel (hydroxypropylcellulose) (HPC) 98 % of control | dose: 12.0 mg/kg/injection, schedule: Q04DX003 (ip), vehicle: Klucel (hydroxypropylcellulose) (HPC) 92 % of control | dose: 12.5 mg/kg/injection, schedule: Q01DX009 (ip), vehicle: Klucel (hydroxypropylcellulose) (HPC) 102 % of control | dose: 25.0 mg/kg/injection, schedule: Q01DX009 (ip), vehicle: Klucel (hydroxypropylcellulose) (HPC) 94 % of control | dose: 25.0 mg/kg/injection, schedule: Q04DX003 (ip), vehicle: Klucel (hydroxypropylcellulose) (HPC) 93 % of control and 96 % of control

O=C1NC2C1C1c3ccccc3C2C12CC2 (stereo not drawn)
inactive: dose: 100.0 mg/kg/injection, schedule: Q04DX002 (ip), vehicle: Klucel (hydroxypropylcellulose) (HPC) 105 % of control | dose: 200.0 mg/kg/injection, schedule: Q04DX002 (ip), vehicle: Klucel (hydroxypropylcellulose) (HPC) 97 % of control | dose: 400.0 mg/kg/injection, schedule: Q04DX002 (ip), vehicle: Klucel (hydroxypropylcellulose) (HPC) 94 % of control

O=C(O)c1c(Cl)c(Cl)cc(Cl)c1Cl
inactive: [7] 93 % of control | [8] 93 % of control | dose: 300.0 mg/kg/injection, schedule: Q01DX001 (ip), vehicle: saline 96 % of control

COC(=O)/C=C/C(Oc1ccc(C)cc1)C(=O)OC (stereo not drawn)
inactive: dose: 75.0 mg/kg/injection, schedule: Q04DX003 (ip), vehicle: other 98 % of control | dose: 150.0 mg/kg/injection, schedule: Q04DX003 (ip), vehicle: other 96 % of control | dose: 300.0 mg/kg/injection, schedule: Q04DX003 (ip), vehicle: other 98 % of control

O=C1C(=O)C2CCC1C2
inactive: dose: 25.0 mg/kg/injection, schedule: Q04DX002 (ip), vehicle: other 100 % of control | dose: 50.0 mg/kg/injection, schedule: Q04DX002 (ip), vehicle: other 98 % of control | dose: 100.0 mg/kg/injection, schedule: Q04DX002 (ip), vehicle: other 98 % of control

Cc1ccc([N+](=O)[O-])cc1NC(=O)Sc1ccccc1O
inactive: [2] 92 % of control | [3] 90 % of control

NCC(=O)c1cc2ccccc2[n+]([O-])c1
inactive: [17] 87 % of control | [4] 92 % of control | [18] 93 % of control | [5] 97 % of control | [19] 93 % of control | [6] 97 % of control

CCOC(=O)C1Oc2ccccc2O1
inactive: [12] 105 % of control | [9] 113 % of control | [13] 99 % of control | [10] 100 % of control | [14] 101 % of control | [11] 97 % of control

COC(=O)/C=C\C(=O)NC(C)(C)CC(C)(C)C
inactive: dose: 50.0 mg/kg/injection, schedule: Q01DX001 (ip), vehicle: carboxymethylcellulose (CMC) 100 % of control | dose: 100.0 mg/kg/injection, schedule: Q01DX001 (ip), vehicle: carboxymethylcellulose (CMC) 105 % of control | dose: 200.0 mg/kg/injection, schedule: Q01DX001 (ip), vehicle: carboxymethylcellulose (CMC) 105 % of control | dose: 400.0 mg/kg/injection, schedule: Q01DX001 (ip), vehicle: carboxymethylcellulose (CMC) 96 % of control

CCc1ccc(C(=O)NN)cc1
inactive: [20] 95 % of control | [21] 105 % of control and 113 % of control | [15] 117 % of control | [16] 123 % of control

C1CCC(C2CCCC(C3CCCC[N-]3)[N-]2)[N-]C1.[Cl][Pt] (stereo not drawn)
inactive: dose: 12.5 mg/kg/injection, schedule: Q01DX009 (ip), vehicle: saline 102 % of control | [20] 98 % of control | [21] 104 % of control and 106 % of control

CC1(C)N=C(N)N=C(N)N1c1cccc(OCCCOc2cccc(N)c2)c1
inactive: dose: 25.0 mg/kg/injection, schedule: Q01DX001 (ip), vehicle: saline 97 % of control | dose: 50.0 mg/kg/injection, schedule: Q01DX001 (ip), vehicle: saline 98 % of control

CCOC(=O)CN(CC)CC(=O)OCC
inactive: dose: 75.0 mg/kg/injection, schedule: Q01DX009 (ip), vehicle: saline with Tween-80 107 % of control | [1] 93 % of control | dose: 150.0 mg/kg/injection, schedule: Q01DX009 (ip), vehicle: saline with Tween-80 107 % of control | [2] 98 % of control | dose: 300.0 mg/kg/injection, schedule: Q01DX009 (ip), vehicle: saline with Tween-80 109 % of control | [3] 101 % of control

CCCCCCCCCCCCCCCC(=O)OCC1OC(CO)(OC2OC(CO)C(O)C(O)C2O)C(O)C1O (stereo not drawn)
inactive: [17] 91 % of control | [4] 89 % of control | [18] 94 % of control | [5] 91 % of control | [6] 98 % of control
